The values that follow come from US8524729B2, “Cinnamoyl derivatives and use thereof” (Sumitomo Chemical Company, Limited, priority 2003, dated 2013).

In general, inhibition refers to the relative decrease from the control value, in per cent.

A short description of this test: Inhibition of the ability of TGF-β to promote transcription of a Type I collagen gene, COL-Luc luciferase reporter in normal human fetal skin fibroblasts. Particulars: final concentration 1 μM; TGF-β added after one hour; 40 hours; normal human fetal skin fibroblast transfected with COL-Luc and pCMV-β-gal; read-out: Inhibition percentage. In kind it is cell-based. The protocol: 1×10^8 cells of a normal human fetal skin fibroblast (Clontech, catalogue No. CC-2509) were cultured at 37° C. overnight under 5% CO2 atmosphere. After the cultured cells were washed with a sodium phosphate buffer (hereinafter, referred to as PBS) twice, 3 ml of PBS was added thereto and the cells were scraped away the wall of a vessel using a cell scraper (Nalgen, catalogue No. 179693). The scraped cells were collected by centrifugation (1,500 rpm, 4° C., 15 min), and these were suspended in 20 ml of PBS and centrifuged again. To the resulting precipitates were added 11 ml of Solution 2 and 4.8 μl of pronase of DNA Extraction Kit (Stratagene, catalogue No. 200600). After shaken at 60° C. for 1 hour, the resulting mixture was allowed to stand in ice for 10 minutes. Then, 4 ml of Solution 3 of the kit was added to the mixture. After mixed, the mixture was allowed to stand in ice for 5 minutes and then centrifuged (3,000 rpm, 4° C., 15 min) to recover a supernatant. To the recovered supernatant was added 2 μl of RNase per 1 ml of the supernatant and the mixture was allowed to stand at 37° C. for 15 minutes. To the mixture was added 2-fold volume of ethanol. After mixed, a white thread-like substance (genomic DNA) appeared and the substance was recovered. The recovered genomic DNA was washed with 70% ethanol and then air-dried. The air-dried genomic DNA was dissolved in 500 μl of 10 mM Tris-HCl, 1 mM EDTA (pH 8.0) (hereinafter, referred to as TE).
The resulting genomic DNA solution (the amount equivalent to 1 μg of genomic DNA), each 1 μl ([…]) of an oligonucleotide consisting of the nucleotide sequence represented by SEQ ID No:1 and an oligonucleotide consisting of the nucleotide sequence represented by SEQ ID No: 2, 29 μL of distilled water, 5 μl of the buffer attached to TaKaRa LA Taq (TAKARA SHUZO, catalogue No. RR002A), 5 μL of a Mg^2+ solution, 5 μL of a dNTP mixture and 0.5 μl of TaKaRa LA Taq (TAKARA SHUZO, catalogue No. RR002A) were mixed. After the resulting mixed solution was incubated at 94° C. for 5 minutes, the mixed solution was subjected to 30 cycles, in which one cycle consists of incubation at 94° C. for 1 minute, at 60° C. for 1 minute and then at 72° C. for 1 minute. The mixed solution was electrophoresed on a 2% agarose gel to recover about 0.5 kb of a DNA. The recovered DNA was treated with phenol/chloroform and then precipitated with ethanol to recover the DNA. The resulting DNA was dissolved in ultrapure water. To this solution were added 2.5 μl of NheI and 2.5 μl of HindIII, and then incubated at 37° C. for 3 hours. Then, the solution was electrophoresed on a 2% agarose gel to recover […] of a DNA. The recovered DNA was precipitated with ethanol to recover again the DNA (hereinafter, referred to as the collagen promoter DNA). […]
With `O=C(C=Cc1ccc(OC(F)(F)F)c(Cl)c1)c1c(O)c2ccccc2[nH]c1=O` [Compound No. (3c-32), 4-hydroxy-3-[3-[3-chloro-4-(trifluoromethoxy)phenyl]-1-oxo-2-propenyl]-2(1H)-quinolinone], the inhibition at 1 µM was ≥ 70%.
Then `Cc1cc(O)c(C(=O)C=Cc2ccc(OC(F)(F)F)c(Cl)c2)c(=O)[nH]1` [Compound No. (3a-32), 4-hydroxy-3-[3-[3-chloro-4-(trifluoromethoxy)phenyl]-1-oxo-2-propenyl]-6-methyl-2(1H)-pyridinone], with ≥ 70%; and `COc1c(C(=O)C=Cc2ccc(OC(F)(F)F)c(Cl)c2)c(=O)oc2ccccc12` [Compound No. (2c-17), 4-methoxy-3-[3-[3-chloro-4-(trifluoromethoxy)phenyl]-1-oxo-2-propenyl]-2H-1-benzopyran-2-one], with ≥ 70%.
Regarding `COC1=C(C(=O)C=Cc2ccc(OC(F)(F)F)c(Cl)c2)COC(C)=C1` [Compound No. (2a-17), 4-methoxy-3-[3-[3-chloro-4-(trifluoromethoxy)phenyl]-1-oxo-2-propenyl]-6-methyl-2H-pyran], the inhibition at 1 µM was ≥ 70%.
